These are literature values, as cited in patent US20110319467A1, “Absorption Enhancement of Statins and Omega Fatty Acids” (priority 2010, published 2011).

For this data set the following is noted: single emulsifier.

Regarding Polyoxyethylene sorbitan monooleate, the HLB value result is reported as “about 15”.
